According to paper PMC8493129, “Design and Synthesis of New Quinoxaline Derivatives as Potential Histone Deacetylase Inhibitors Targeting Hepatocellular Carcinoma: In Silico, In Vitro, and SAR Studies” (Frontiers in Chemistry, 2021):
Several values for one entry are separate records, joined by “and”; a condition that tells them apart may be missing. Identical values can stand only once.

Key:
HepG-2 cells [1] = test: Cell cycle analysis by flow cytometry; format: cell-based, human
Procedure: The most compound 6 c incorporating 4-Cl benzylidene side chain was further evaluated through cell cycle analysis in HepG-2 cell line. Such a test was carried out to detect the exact phase at which cell cycle arrest takes place.

HDAC1 = HDAC1 (Homo sapiens, UniProt Q13547); test: Histone deacetylase inhibition, homogeneous fluorescence release assay
HepG-2 cells [2] = test: Annexin V-FITC apoptosis assay; format: cell-based, human; settings: HepG-2, 1.53 µM
Procedure: It is well-known that cell death may be due to programmed apoptosis or uncontrolled necrosis. Annexin V-based flow cytometry assay as a helpful strategy to determine the exact cause of death was carried out. […] This confirms that the cytotoxic activity of compound 6 c is due to programmed apoptosis, and not to nonspecific necrosis.
The previous compound was analyzed by FACS as we previously described ([Al-Rashood et al., 2020]; [Eliaa et al., 2020]; [Eldehna et al., 2021]).

Bax = test: Apoptotic marker level (Bax) in HepG-2 cells; format: cell-based, human; settings: control 24.37 pg/ml
Procedure: (§1) The method was performed in detail as previously explained ([Eliaa et al., 2020]).

[3] = system: HepG-2 liver cancer cell line; test: Anti-proliferative activity (MTT / SRB assay), HepG-2; format: cell-based, human; settings: HepG-2; for IC50: Homo sapiens, HepG2, mean of three separate experiments
Procedure: (§2) The new quinoxaline derivatives of the five series: 6, 7, 8, 9, and 10 were evaluated for their potential anti-proliferative activity against two liver cancer cell lines (HepG-2 and HuH-7) obtained from the American Type Culture Collection.

[4] = system: HuH-7 liver cancer cell line; test: Anti-proliferative activity (MTT / SRB assay), HuH-7; format: cell-based, human; settings: for IC50: Homo sapiens, mean of three separate experiments
Procedure: as §2

Bcl-2 = test: Anti-apoptotic marker level (Bcl-2) in HepG-2 cells; format: cell-based, human; settings: control 5.048 pg/ml
Procedure: as §1

HDAC4 = HDAC4 (Homo sapiens, UniProt P56524); test: Histone deacetylase inhibition, homogeneous fluorescence release assay
HDAC6 = molecular target: T1, HDAC6 (Homo sapiens, UniProt Q9UBN7); test: as above
T1 sequence (Q9UBN7 1-1215): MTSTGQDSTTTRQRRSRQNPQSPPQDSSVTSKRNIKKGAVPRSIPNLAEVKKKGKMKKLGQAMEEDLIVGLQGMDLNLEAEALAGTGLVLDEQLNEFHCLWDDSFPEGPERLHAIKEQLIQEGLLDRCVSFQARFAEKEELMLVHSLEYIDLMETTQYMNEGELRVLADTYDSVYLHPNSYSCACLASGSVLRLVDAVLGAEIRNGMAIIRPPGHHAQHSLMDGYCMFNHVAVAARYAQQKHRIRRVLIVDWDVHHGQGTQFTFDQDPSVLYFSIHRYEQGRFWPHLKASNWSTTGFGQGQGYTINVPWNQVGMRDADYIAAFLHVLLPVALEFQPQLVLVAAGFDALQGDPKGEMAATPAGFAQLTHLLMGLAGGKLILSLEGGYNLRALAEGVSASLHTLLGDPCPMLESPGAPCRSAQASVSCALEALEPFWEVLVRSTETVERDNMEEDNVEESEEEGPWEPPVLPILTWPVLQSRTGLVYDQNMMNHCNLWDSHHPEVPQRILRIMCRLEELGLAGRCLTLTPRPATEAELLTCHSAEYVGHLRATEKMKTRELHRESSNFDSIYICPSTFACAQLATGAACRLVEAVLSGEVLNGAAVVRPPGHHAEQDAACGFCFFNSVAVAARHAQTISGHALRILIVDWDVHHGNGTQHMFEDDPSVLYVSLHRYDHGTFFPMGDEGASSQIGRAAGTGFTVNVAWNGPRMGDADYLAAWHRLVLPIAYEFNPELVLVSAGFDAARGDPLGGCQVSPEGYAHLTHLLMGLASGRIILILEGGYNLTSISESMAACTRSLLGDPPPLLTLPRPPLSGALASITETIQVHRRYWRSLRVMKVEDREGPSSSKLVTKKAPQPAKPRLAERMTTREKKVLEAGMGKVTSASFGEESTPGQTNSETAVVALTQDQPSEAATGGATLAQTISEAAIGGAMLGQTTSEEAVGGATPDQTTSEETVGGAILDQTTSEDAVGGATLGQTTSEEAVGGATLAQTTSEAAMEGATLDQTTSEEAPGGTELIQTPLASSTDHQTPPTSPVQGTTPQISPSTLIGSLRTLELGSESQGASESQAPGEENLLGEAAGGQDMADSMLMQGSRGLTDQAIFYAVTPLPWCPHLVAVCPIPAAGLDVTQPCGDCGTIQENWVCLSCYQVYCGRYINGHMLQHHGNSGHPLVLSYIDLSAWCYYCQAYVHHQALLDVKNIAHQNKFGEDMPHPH

[5] = system: HepG-2 and HuH-7 liver cancer cell lines; test: Anti-proliferative activity, statements covering both cell lines; format: cell-based, human; settings: class by IC50 on HepG-2 and HuH-7
Procedure: as §2

Sequence of HDAC1 (Q13547 whole entry): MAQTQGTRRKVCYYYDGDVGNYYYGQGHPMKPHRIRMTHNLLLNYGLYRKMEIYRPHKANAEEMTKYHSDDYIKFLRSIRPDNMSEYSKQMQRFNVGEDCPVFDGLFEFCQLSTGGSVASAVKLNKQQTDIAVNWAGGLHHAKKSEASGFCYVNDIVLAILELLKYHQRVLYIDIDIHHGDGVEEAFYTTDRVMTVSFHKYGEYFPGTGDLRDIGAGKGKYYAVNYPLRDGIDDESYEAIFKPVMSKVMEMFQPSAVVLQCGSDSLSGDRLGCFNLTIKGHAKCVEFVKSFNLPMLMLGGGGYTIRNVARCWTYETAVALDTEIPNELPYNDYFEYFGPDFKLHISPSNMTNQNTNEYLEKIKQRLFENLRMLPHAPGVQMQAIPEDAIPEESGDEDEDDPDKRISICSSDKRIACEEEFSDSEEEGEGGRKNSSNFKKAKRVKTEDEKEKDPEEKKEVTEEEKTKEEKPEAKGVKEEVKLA
Sequence of HDAC4 (P56524 whole entry): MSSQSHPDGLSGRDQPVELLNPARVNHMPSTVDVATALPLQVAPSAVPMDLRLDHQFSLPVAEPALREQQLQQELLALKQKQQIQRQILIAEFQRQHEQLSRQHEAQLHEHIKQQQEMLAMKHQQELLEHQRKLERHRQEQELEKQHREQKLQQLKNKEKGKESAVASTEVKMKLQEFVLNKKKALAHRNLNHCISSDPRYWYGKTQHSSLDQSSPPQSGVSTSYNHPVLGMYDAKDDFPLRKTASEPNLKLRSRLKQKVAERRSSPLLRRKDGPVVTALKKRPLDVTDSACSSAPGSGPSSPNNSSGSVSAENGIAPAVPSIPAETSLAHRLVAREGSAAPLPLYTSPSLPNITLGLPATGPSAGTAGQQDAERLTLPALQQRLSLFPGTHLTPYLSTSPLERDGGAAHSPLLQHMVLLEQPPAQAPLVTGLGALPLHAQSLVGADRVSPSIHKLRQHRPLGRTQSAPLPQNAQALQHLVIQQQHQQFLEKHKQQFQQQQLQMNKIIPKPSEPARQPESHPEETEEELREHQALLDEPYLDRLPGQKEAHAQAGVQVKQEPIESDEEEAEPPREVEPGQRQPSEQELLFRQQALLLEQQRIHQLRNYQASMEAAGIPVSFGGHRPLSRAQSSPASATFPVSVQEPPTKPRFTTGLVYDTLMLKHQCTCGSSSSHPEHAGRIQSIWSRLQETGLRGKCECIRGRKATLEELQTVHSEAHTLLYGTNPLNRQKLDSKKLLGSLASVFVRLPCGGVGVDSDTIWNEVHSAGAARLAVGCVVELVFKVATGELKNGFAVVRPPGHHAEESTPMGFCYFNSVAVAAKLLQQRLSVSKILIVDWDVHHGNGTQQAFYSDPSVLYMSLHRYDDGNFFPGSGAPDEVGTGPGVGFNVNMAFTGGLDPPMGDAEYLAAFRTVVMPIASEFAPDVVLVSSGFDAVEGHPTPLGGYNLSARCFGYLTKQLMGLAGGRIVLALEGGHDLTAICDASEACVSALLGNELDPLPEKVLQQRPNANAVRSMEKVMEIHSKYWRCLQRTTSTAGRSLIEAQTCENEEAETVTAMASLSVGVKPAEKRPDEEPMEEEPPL

SMILES	decline in the cell population at G0/G1 phase compared to control (HepG-2 cells [1]; HepG-2, 1.53 µM) [fold]	decline in the cell population at S phase compared to control (HepG-2 cells [1]; HepG-2, 1.53 µM) [fold]	increase in the population of cells at the G2/M phase compared to control (HepG-2 cells [1]; HepG-2, 1.53 µM) [fold]	%G2/M (HepG-2 cells [1]; HepG-2 cells treated at 1.53 µM, control 18.67%) [%]	%S (HepG-2 cells [1]; HepG-2 cells treated at 1.53 µM, control 35.93%) [%]	%G0-G1 (HepG-2 cells [1]; HepG-2 cells treated at 1.53 µM, control 45.40%) [%]	IC50 (HDAC1) [nM]	increase in apoptosis percentage compared to the control, early phase (HepG-2 cells [2]) [fold]	increase in apoptosis percentage compared to the control, late phase (HepG-2 cells [2]) [fold]	AnxV-FITC apoptotic cells percentage, late apoptosis (HepG-2 cells [2]; control 0.53%) [%]	AnxV-FITC apoptotic cells percentage, early apoptosis (HepG-2 cells [2]; control 0.62%) [%]	Bax (Bax) [pg/mL]	IC50 [3] [µM]	IC50 [4] [µM]	Bcl-2 (Bcl-2)	IC50 (HDAC4) [nM]	IC50 (HDAC6) [nM]	fold increase in activity versus corresponding member 9, HepG-2 ([3]; ratio of IC50 values) [fold]	fold increase in activity versus corresponding member 9, HuH-7 ([4]; ratio of IC50 values) [fold]	cytotoxic (anti-proliferative) activity class [5]
Clc1ccc(C=NNc2nc3ccccc3nc2Cl)cc1 [Compound 6 c, 2-Chloro-3-(2-(4-chlorobenzylidene)hydrazinyl)quinoxaline]	1.23	1.18	1.76	32.93	30.32	36.75	1760	9.98	10.81	5.73	6.19	274.3	1.53	3.06	1.27 pg/mL and 1.278 pg/mL	1390	3460			
COc1nc2ccccc2nc1N/N=C1/C(=O)Nc2ccccc21 [Compound 12]							2010					257.9	1.99	3.08	1.571 pg/mL	1720	3620	5.81	5.33	very strong (1–10 (very strong))
